From PMC10450872 (ACS Central Science, 2023)
Where “and” joins values, the source holds several entries; their conditions need not be identical. Identical values can stand only once.

Key:
hKOR (OPRK1) = target: T1, hKOR (OPRK1) (Homo sapiens, UniProt P41145); test: cell-based; conditions: for Emax: CHO, read-out: cAMP Emax
T1 construct: 3HA (triple haemagglutinin tag); expressed in transfected cells

hKOR [1] = target: T2, hKOR (Homo sapiens, UniProt P41145); test: cell-based; conditions: for Emax: read-out: βarrestin2 Emax; for EC50: βarrestin2 pEC50
T2 construct: β-galactosidase enzyme fragment for EFC (ProLink tag of the PathHunter system; name and presence on the receptor from own knowledge); host or cells: U2OS-β-arrestin2-EFC-hKOR (PathHunter) cells
T2 sequence (P41145 whole entry, the tested form may be a part): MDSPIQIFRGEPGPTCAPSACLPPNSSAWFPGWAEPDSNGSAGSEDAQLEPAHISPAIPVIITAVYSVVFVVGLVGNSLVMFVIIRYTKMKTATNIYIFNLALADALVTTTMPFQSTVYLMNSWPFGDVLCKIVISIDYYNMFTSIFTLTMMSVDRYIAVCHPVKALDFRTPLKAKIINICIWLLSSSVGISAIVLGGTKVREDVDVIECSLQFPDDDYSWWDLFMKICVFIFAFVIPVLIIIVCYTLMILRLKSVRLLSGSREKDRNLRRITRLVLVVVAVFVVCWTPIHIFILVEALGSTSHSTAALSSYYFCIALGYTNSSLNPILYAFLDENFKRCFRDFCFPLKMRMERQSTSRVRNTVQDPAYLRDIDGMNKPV

hKOR [2] = target: T2, hKOR; format: cell-based
human MOR (OPRM1) = target: T3, human MOR (OPRM1) (Homo sapiens, UniProt P35372); format: cell-based
T3 construct: expressed in transfected cells
T3 sequence (P35372 whole entry): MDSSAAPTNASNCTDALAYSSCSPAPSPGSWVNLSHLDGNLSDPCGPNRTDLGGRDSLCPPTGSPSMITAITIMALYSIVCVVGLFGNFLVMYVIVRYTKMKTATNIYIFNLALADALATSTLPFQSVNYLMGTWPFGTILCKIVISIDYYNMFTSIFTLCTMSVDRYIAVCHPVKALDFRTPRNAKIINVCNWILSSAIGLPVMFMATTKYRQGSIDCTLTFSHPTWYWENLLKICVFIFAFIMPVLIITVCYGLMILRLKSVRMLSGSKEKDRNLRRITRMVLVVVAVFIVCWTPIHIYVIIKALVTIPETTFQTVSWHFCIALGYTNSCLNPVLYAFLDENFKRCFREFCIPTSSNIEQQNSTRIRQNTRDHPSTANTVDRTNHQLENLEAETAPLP

[3] = mean EC50 of inhibition of forskolin-stimulated cAMP accumulation via KOR
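Throughout, for Emax: 100% = maximum response to 10 µM U69,593.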

T1 sequence (P41145 whole entry): as the sequence (P41145 whole entry, the tested form may be a part) above

## COC(=O)[C@@H]1C[C@H](OC(C)=O)C(=O)[C@@H]2[C@H]3CC=CC(=O)[C@@H]3CC[C@]21C [17a]
hKOR (OPRK1)
  Emax: 96%
hKOR (OPRK1); cAMP pEC50
  EC50: 10700 nM
hKOR (OPRK1); [3]
  EC50: > 10000 nM

## COC(=O)[C@@H]1C[C@H](OC(C)=O)C(=O)[C@@H]2[C@H]3C[C@@H](c4cccc(O)c4)CC(=O)[C@@H]3CC[C@]21C [22a]
hKOR (OPRK1)
  Emax: 97%
hKOR (OPRK1); cAMP pEC50
  EC50: 309 nM
hKOR [1]
  Emax: 81%
  EC50: 5890 nM
hKOR [2]
  Bias Factor: 0.72
  ΔΔLogτ/KA (cAMP/βarr2): 1.397

## COC(=O)[C@@H]1C[C@H](OC(C)=O)C(=O)[C@@H]2[C@H]3C[C@H](c4cccc(O)c4)CC(=O)[C@@H]3CC[C@]21C [22b]
hKOR (OPRK1)
  Emax: 95%
hKOR (OPRK1); cAMP pEC50
  EC50: 912 nM

## COC(=O)[C@@H]1C[C@H](OC(C)=O)C(=O)[C@@H]2[C@H]3C[C@@H](c4ccccc4)CC(=O)[C@@H]3CC[C@]21C [24a]
hKOR (OPRK1)
  Emax: 98%
hKOR (OPRK1); cAMP pEC50
  EC50: 9.12 nM
hKOR [1]
  Emax: 120%
  EC50: 219 nM
hKOR [2]
  Bias Factor: 0.39
  ΔΔLogτ/KA (cAMP/βarr2): 2.554

## COC(=O)[C@@H]1C[C@H](OC(C)=O)C(=O)[C@@H]2[C@H]3C[C@H](c4ccccc4)CC(=O)[C@@H]3CC[C@]21C [24b]
hKOR (OPRK1)
  Emax: 100%
hKOR (OPRK1); cAMP pEC50
  EC50: 63.1 nM
hKOR [1]
  Emax: 109%
  EC50: 891 nM
hKOR [2]
  Bias Factor: 0.32
  ΔΔLogτ/KA (cAMP/βarr2): 3.153

## C#CC1(O)CC(c2ccccc2)CC2C1CCC1(C)C(C(=O)OC)CC(OC(C)=O)C(=O)C21 (centres unmarked) [40a]
hKOR (OPRK1)
  cAMP Emax: 105
hKOR (OPRK1); [3]
  EC50: 6.9 nM
hKOR [1]
  βarrestin2 Emax: 80
  EC50: 741 nM
hKOR [2]
  Bias Factor: 9.83 and 7.4–9.8
  ΔΔLogτ/KA (cAMP/βarr2): 0.102

## C#CC1(O)CC(c2ccccc2)CC2C1CCC1(C)C(C(=O)OC)CC(OC(C)=O)C(=O)C21 (centres unmarked) [40b]
hKOR (OPRK1)
  Emax: 104%
hKOR (OPRK1); [3]
  EC50: 4.4 nM
hKOR [1]
  Emax: 92%
  EC50: 794 nM
hKOR [2]
  Bias Factor: 7.44 and 7.4–9.8
  ΔΔLogτ/KA (cAMP/βarr2): 0.134

## COC(=O)C1CC(OC(C)=O)C(=O)C2C3CC(c4ccoc4)CC(O)C3CCC12C (centres unmarked) [41a]
hKOR (OPRK1)
  cAMP Emax: 102
hKOR (OPRK1); cAMP pEC50
  EC50: 5.01 nM
hKOR (OPRK1); [3]
  EC50: 5.1 nM
hKOR [1]
  βarrestin2 Emax: 85
  EC50: 123 nM
hKOR [2]
  Bias Factor: 1.33
  ΔΔLogτ/KA (cAMP/βarr2): 0.754

## COC(=O)C1CC(OC(C)=O)C(=O)C2C3CC(c4ccoc4)CC(O)C3CCC12C (centres unmarked) [41b]
hKOR (OPRK1)
  Emax: 103%
hKOR (OPRK1); cAMP pEC50
  EC50: 0.363 nM
hKOR (OPRK1); [3]
  EC50: 0.4 nM
hKOR [1]
  Emax: 86%
  EC50: 14.1 nM
hKOR [2]
  Bias Factor: 2.06
  ΔΔLogτ/KA (cAMP/βarr2): 0.486

## COC(=O)[C@@H]1C[C@H](OC(C)=O)C(=O)[C@@H]2[C@H]3C[C@@H](c4ccoc4)CC(=O)[C@@H]3CC[C@]21C [compound 1, O6C-20-nor-SalA]
hKOR (OPRK1)
  Emax: 96%
hKOR [1]
  Emax: 108%
hKOR [2]
  Bias Factor: 0.34

## COC(=O)[C@@H]1C[C@H](OC(C)=O)C(=O)[C@@H]2[C@H]3C[C@H](c4ccoc4)CC(=O)[C@@H]3CC[C@]21C [compound 18]
hKOR (OPRK1)
  Emax: 91%
hKOR [1]
  Emax: 91%
hKOR [2]
  Bias Factor: 0.23

## COC(=O)[C@@H]1C[C@H](OC(C)=O)C(=O)[C@@H]2[C@H]3C[C@@H](c4ccsc4)CC(=O)[C@@H]3CC[C@]21C [compound 19]
hKOR (OPRK1)
  Emax: 101%
hKOR (OPRK1); cAMP pEC50
  EC50: 1.48 nM
hKOR [1]
  Emax: 105%
  EC50: 72.4 nM
hKOR [2]
  Bias Factor: 1.11
  ΔΔLogτ/KA (cAMP/βarr2): 0.898

## COC(=O)[C@@H]1C[C@H](OC(C)=O)C(=O)[C@@H]2[C@H]3C[C@@H](c4cccnc4)CC(=O)[C@@H]3CC[C@]21C [compound 20]
hKOR (OPRK1)
  Emax: 105%
hKOR (OPRK1); cAMP pEC50
  EC50: 468 nM
hKOR [1]
  Emax: 88%
  EC50: 2040 nM
hKOR [2]
  Bias Factor: 0.17
  ΔΔLogτ/KA (cAMP/βarr2): 5.896

## COC(=O)[C@@H]1C[C@H](OC(C)=O)C(=O)[C@@H]2[C@H]3C[C@@H](c4ccncc4)CC(=O)[C@@H]3CC[C@]21C [compound 21]
hKOR (OPRK1)
  Emax: 93%
hKOR (OPRK1); cAMP pEC50
  EC50: 302 nM
hKOR [1]
  Emax: 94%
  EC50: 3310 nM
hKOR [2]
  Bias Factor: 0.23
  ΔΔLogτ/KA (cAMP/βarr2): 4.409

## COC(=O)[C@@H]1C[C@H](OC(C)=O)C(=O)[C@@H]2[C@H]3C[C@@H](c4ccnc(OC)c4)CC(=O)[C@@H]3CC[C@]21C [compound 23]
hKOR (OPRK1); [3]
  EC50: 3390 nM

## COC(=O)[C@@H]1C[C@H](OC(C)=O)C(=O)[C@@H]2[C@H]3C[C@@H](c4ccnc5ccccc45)CC(=O)[C@@H]3CC[C@]21C [compound 25]
hKOR (OPRK1)
  Emax: 95%
hKOR (OPRK1); cAMP pEC50
  EC50: 631 nM

## COC(=O)[C@@H]1C[C@H](OC(C)=O)C(=O)[C@@H]2[C@H]3C[C@@H](c4coc5ccccc45)CC(=O)[C@@H]3CC[C@]21C [compound 26]
hKOR (OPRK1)
  Emax: 104%
hKOR (OPRK1); cAMP pEC50
  EC50: 41.7 nM
hKOR [1]
  Emax: 100%
  EC50: 2340 nM
hKOR [2]
  Bias Factor: 1.87
  ΔΔLogτ/KA (cAMP/βarr2): 0.536

## COC(=O)[C@@H]1C[C@H](OC(C)=O)C(=O)[C@@H]2[C@H]3C[C@@H](c4c[nH]c5ccccc45)CC(=O)[C@@H]3CC[C@]21C [compound 27]
hKOR (OPRK1)
  Emax: 92%
hKOR (OPRK1); cAMP pEC50
  EC50: 331 nM
hKOR [1]
  Emax: 14%
  EC50: 2040 nM
hKOR [2]
  Bias Factor: 3.96
  ΔΔLogτ/KA (cAMP/βarr2): 0.252

## COC(=O)[C@@H]1C[C@H](OC(C)=O)C(=O)[C@@H]2[C@H]3C[C@@H](c4ccc(C)cc4)CC(=O)[C@@H]3CC[C@]21C [compound 28]
hKOR (OPRK1)
  Emax: 93%
hKOR (OPRK1); cAMP pEC50
  EC50: 398 nM
hKOR [1]
  Emax: 14%
  EC50: 1860 nM
hKOR [2]
  Bias Factor: 3.88
  ΔΔLogτ/KA (cAMP/βarr2): 0.258

## COC(=O)[C@@H]1C[C@H](OC(C)=O)C(=O)[C@@H]2[C@H]3C[C@@H](c4ccc(Cl)cc4)CC(=O)[C@@H]3CC[C@]21C [compound 29]
hKOR (OPRK1)
  Emax: 103%
hKOR (OPRK1); cAMP pEC50
  EC50: 67.6 nM
hKOR [1]
  Emax: 51%
  EC50: 851 nM
hKOR [2]
  Bias Factor: 3.16
  ΔΔLogτ/KA (cAMP/βarr2): 0.316

## COC(=O)[C@@H]1C[C@H](OC(C)=O)C(=O)[C@@H]2[C@H]3C[C@@H](c4cccc(C)c4)CC(=O)[C@@H]3CC[C@]21C [compound 30]
hKOR (OPRK1)
  Emax: 105%
hKOR (OPRK1); cAMP pEC50
  EC50: 14.5 nM
hKOR (OPRK1); [3]
  EC50: 15 nM
hKOR [1]
  Emax: 115%
  EC50: 794 nM
hKOR [2]
  Bias Factor: 1.26
  ΔΔLogτ/KA (cAMP/βarr2): 0.797

## COC(=O)[C@@H]1C[C@H](OC(C)=O)C(=O)[C@@H]2[C@H]3C[C@@H](c4cccc(Cl)c4)CC(=O)[C@@H]3CC[C@]21C [compound 31]
hKOR (OPRK1)
  Emax: 103%
hKOR (OPRK1); cAMP pEC50
  EC50: 4.27 nM
hKOR (OPRK1); [3]
  EC50: 4.2 nM
hKOR [1]
  Emax: 123%
  EC50: 631 nM
hKOR [2]
  Bias Factor: 2.50
  ΔΔLogτ/KA (cAMP/βarr2): 0.399

## COC(=O)[C@@H]1C[C@H](OC(C)=O)C(=O)[C@@H]2[C@H]3C[C@@H](C4=CCCCC4)CC(=O)[C@@H]3CC[C@]21C [compound 32]
hKOR (OPRK1)
  increase of potency on replacement of the 3-furyl: 20 fold
hKOR (OPRK1); [3]
  EC50: 0.3 nM

## COC(=O)[C@@H]1C[C@H](OC(C)=O)C(=O)[C@@H]2[C@H]3C[C@@H](Sc4ccccc4)CC(=O)[C@@H]3CC[C@]21C [compound 33]
hKOR (OPRK1)
  Emax: 92%
hKOR (OPRK1); [3]
  EC50: 96 nM
hKOR [1]
  Emax: 131%
  EC50: 4270 nM
hKOR [2]
  Bias Factor: 0.51
  ΔΔLogτ/KA (cAMP/βarr2): 1.946

## COC(=O)[C@@H]1C[C@H](OC(C)=O)C(=O)[C@@H]2[C@H]3C[C@@H](c4ccccc4)CC(=O)N[C@@H]3CC[C@]21C [compound 35]
hKOR (OPRK1)
  Emax: 107%
hKOR (OPRK1); [3]
  EC50: 46 nM
hKOR [1]
  Emax: 67%
  EC50: 1820 nM
hKOR [2]
  Bias Factor: 5.48
  ΔΔLogτ/KA (cAMP/βarr2): 0.182

## COC(=O)C1CC(OC(C)=O)C(=O)C2C3CC(c4ccoc4)CC(=NO)C3CCC12C (centres unmarked) [compound 36]
hKOR (OPRK1)
  Emax: 105%
hKOR (OPRK1); cAMP pEC50
  EC50: 0.347 nM
hKOR (OPRK1); [3]
  EC50: 0.4 nM
hKOR [1]
  Emax: 83%
  EC50: 12.9 nM
hKOR [2]
  Bias Factor: 2.66
  ΔΔLogτ/KA (cAMP/βarr2): 0.375

## COC(=O)C1CC(OC(C)=O)C(=O)C2C3CC(c4ccccc4)CC(=NO)C3CCC12C (centres unmarked) [compound 37]
hKOR (OPRK1)
  Emax: 105%
hKOR (OPRK1); cAMP pEC50
  EC50: 0.417 nM
hKOR (OPRK1); [3]
  EC50: 0.4 nM
hKOR [1]
  Emax: 80%
  EC50: 42.7 nM
hKOR [2]
  Bias Factor: 8.60 and 7.4–9.8
  ΔΔLogτ/KA (cAMP/βarr2): 0.116
Human MOR (OPRM1)
  selectivity for KOR over MOR: high selectivity for KOR over MOR was also preserved

## CON=C1CC(c2ccccc2)CC2C1CCC1(C)C(C(=O)OC)CC(OC(C)=O)C(=O)C21 (centres unmarked) [compound 38]
hKOR (OPRK1)
  Emax: 100%
hKOR (OPRK1); cAMP pEC50
  EC50: 2.95 nM
hKOR [1]
  Emax: 98%
  EC50: 245 nM
hKOR [2]
  Bias Factor: 2.28
  ΔΔLogτ/KA (cAMP/βarr2): 0.439

## COC(=O)C1CC(OC(C)=O)C(=O)C2C3CC(c4ccccc4)CC(=NOC(C)=O)C3CCC12C (centres unmarked) [compound 39]
hKOR (OPRK1)
  Emax: 105%
hKOR (OPRK1); cAMP pEC50
  EC50: 1.26 nM
hKOR [1]
  Emax: 83%
  EC50: 97.7 nM
hKOR [2]
  Bias Factor: 5.43
  ΔΔLogτ/KA (cAMP/βarr2): 0.184
